Patent US8518989B2, “Prodrugs of short-chain fatty acids and treatment methods” (Georgia Health Sciences University Research Institute, Inc., priority 2005, dated 2013)

What was measured:
human SLC5A8 [1] = target: T1, human SLC5A8 (Homo sapiens, UniProt Q8N695, F251V/V193I); assay: Two-microelectrode voltage clamp of substrate-induced currents in SLC5A8-expressing oocytes; type: cell-based; conditions: for K0.5 for SLC5A8: Na+ 100 mM
T1 construct: We amplified the coding region of SLC5A8 mRNA by RT-PCR using human intestinal mRNA as the template; expressed in transfected cells; host or cells: Xenopus laevis oocytes, 50 ng capped cRNA from the pGH19 construct
T1 sequence (Q8N695 1-610 V193I/F251V): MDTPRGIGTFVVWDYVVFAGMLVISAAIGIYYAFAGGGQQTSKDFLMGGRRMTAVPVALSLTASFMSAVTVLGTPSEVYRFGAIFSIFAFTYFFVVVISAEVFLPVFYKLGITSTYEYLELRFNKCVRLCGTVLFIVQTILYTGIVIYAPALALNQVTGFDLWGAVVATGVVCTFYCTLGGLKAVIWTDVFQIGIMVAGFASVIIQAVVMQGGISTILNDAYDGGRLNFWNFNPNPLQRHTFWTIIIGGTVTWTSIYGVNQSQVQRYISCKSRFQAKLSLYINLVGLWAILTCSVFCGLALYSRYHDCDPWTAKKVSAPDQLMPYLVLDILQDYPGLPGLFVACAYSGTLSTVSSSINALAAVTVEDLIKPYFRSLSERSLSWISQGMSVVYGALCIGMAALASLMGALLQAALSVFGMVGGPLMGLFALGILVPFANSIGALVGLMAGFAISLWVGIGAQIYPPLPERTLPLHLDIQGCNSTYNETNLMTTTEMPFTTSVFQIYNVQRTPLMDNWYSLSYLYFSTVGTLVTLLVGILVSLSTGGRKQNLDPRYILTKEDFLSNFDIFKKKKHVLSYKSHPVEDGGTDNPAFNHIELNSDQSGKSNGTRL
Experimental: (§1) The amplified human SLC5A8 cDNA was expressed heterologously in Xenopus oocytes by cRNA injection. Capped cRNA from SLC5A8 cDNA was synthesized using the mMESSAGE mMACHINE kit (Ambion Inc., Austin, Tex.). Mature oocytes (stage 1V or V) from Xenopus laevis were injected with 50 ng cRNA. Uninjected oocytes served as controls. The oocytes were used for uptake and electrophysiological studies 3-6 days after cRNA injection. Uptake of radiolabeled substrates in uninjected and cRNA-injected oocytes was determined as described previously (Fei, Y. J., et al., (1995) Biochemistry 34, 8744-8751).
(§2) Eight oocytes were used for each uptake measurement. Electrophysiological studies were performed by the two-microelectrode voltage clamp method (11. Wang, H., Fei, et al., (2000) Am. J. Physiol. 278:C1019-C1030; Inoue, K, et al. (2004) Biochem. J. 378:949-957).
Oocytes were perfused with a NaCl-containing buffer (100 mM NaCl, 2 mM KCl, 1 mM MgCl2, 1 mM CaCl2, 3 mM Hepes, 3 mM Mes, and 3 mM Tris, pH 7.5), followed by the same buffer containing different fatty acids. The membrane potential was clamped at −50 mV. The differences between the steady-state currents measured in the presence and absence of substrates were considered as the substrate-induced currents. To investigate the current-membrane potential (I—V) relationship, step changes in membrane potential were applied, each for a duration of 100 ms in 20-mV increments. The kinetic parameter K0.5 (i.e. the substrate concentration necessary for the induction of half-maxima) current) was calculated by fitting the values of the substrate-induced currents to Michaelis-Menten equation. The Na^+-activation kinetics was analyzed by measuring the substrate-specific currents in the presence of increasing concentrations of Na^+. The data were analyzed by the Hill equation to determine the Hill coefficient (h; the number of Na^+ ions involved in the activation process). The kinetic parameters were determined using the computer program Sigma Plot, version 6.0 (SPSS, Inc., Chicago, Ill.). Electrophysiological measurements of substrate-induced currents were repeated at least four times with separate oocytes. The data are presented as means±S.E. of these replicates.
The charge-to substrate transfer ratio was determined for propionate in four different oocytes as described previously (Wang, H., et al. (2000) Am. J. Physiol. 278:C1019-C1030 12. Inoue, K., Fei, Y. J., Zhuang, L., Gopal, E., Miyauchi, S., and Ganapathy, V. (2004) Biochem. J. 378:949-957). The oocytes were perfused with 25 μM propionate (unlabeled plus radiolabeled propionate), and inward currents were monitored over a period of 8-10 min. At the end of the experiment, the amount of propionate transported into the oocytes was calculated by measuring the radioactivity associated with the oocytes. The area within the curve describing the relationship between the time and inward current was integrated to calculate the charge transferred into the oocyte during incubation with propionate. The values for substrate transfer and charge transfer were used to determine the charge to substrate transfer ratio.

human SLC5A8 [2] = target: T1, human SLC5A8; assay: Uptake of radiolabeled short-chain fatty acids in Xenopus oocytes injected with SLC5A8 cRNA; type: cell-based; set-up: Uptake, uninjected oocytes / Uptake, cRNA-injected oocytes: unit not given here; conditions: 1 h incubation; for Uptake, cRNA-injected oocytes: SLC5A8 cRNA-injected oocytes; for Uptake, uninjected oocytes: uninjected control oocytes
Experimental: as §1, §2
Uptake of short-chain fatty acids in uninjected oocytes and in oocytes injected with SLC5A8 cRNA was measured with 1 h incubation. Concentration of substrates (labeled plus unlabeled) varied in the range of 50-500 μM depending on the specific radioactivity of the substrates. Eight oocytes were used for each uptake measurement. Data represent means±SE.

[3] = test system: MCF7 cells transfected with SMCT1 cDNA; assay: Colony formation assay in MCF7 cells transfected with SMCT1 cDNA; type: cell-based, human; conditions: SMCT1-expressing MCF7 cells; for IC50: two weeks
rat ATB^0,+ [4] = target: T2, rat ATB^0,+ (Rattus norvegicus, UniProt Q334I2); assay: Substrate-induced inward currents in Xenopus oocytes expressing rat ATB0,+ (voltage clamp); type: cell-based; conditions: voltage clamp; for Inward currents induced in ATB0,+-expressing oocytes (in words): 5 mM
T2 sequence (Q334I2 1-640): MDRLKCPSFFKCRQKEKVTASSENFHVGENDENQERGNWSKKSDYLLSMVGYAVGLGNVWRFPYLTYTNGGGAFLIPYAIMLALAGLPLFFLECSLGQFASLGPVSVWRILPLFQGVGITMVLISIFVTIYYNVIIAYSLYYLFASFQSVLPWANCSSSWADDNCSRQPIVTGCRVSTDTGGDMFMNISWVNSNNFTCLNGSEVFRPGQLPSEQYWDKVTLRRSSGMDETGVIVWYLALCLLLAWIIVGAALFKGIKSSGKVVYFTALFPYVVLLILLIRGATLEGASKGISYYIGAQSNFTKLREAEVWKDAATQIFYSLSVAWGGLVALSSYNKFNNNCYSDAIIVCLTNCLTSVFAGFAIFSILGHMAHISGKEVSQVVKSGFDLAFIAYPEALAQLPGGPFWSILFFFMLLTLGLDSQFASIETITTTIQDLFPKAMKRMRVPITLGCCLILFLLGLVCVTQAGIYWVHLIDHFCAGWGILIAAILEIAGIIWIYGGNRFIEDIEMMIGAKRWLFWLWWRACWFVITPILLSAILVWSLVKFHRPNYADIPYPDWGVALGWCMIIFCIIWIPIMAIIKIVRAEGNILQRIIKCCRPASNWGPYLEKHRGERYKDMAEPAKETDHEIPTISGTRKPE
Experimental: Experiments with HRPE cells were repeated at least three times with three independent transfections and transport measurements made in duplicate in each experiment. Electrophysiological measurements of substrate-induced currents were repeated at least three times with separate oocytes. The data are presented as means±S.E.M. of these replicates. The kinetic parameters, Michaelis constant (Kt) and maximal velocity (Vmax) were calculated by fitting the ATB^0,+-specific transport data to the Michaelis-Menten equation describing a single saturable transport system. Na^+ and Cl^−-activation kinetics were analyzed by fitting the ATB^0,+-specific transport data to the Hill equation for the determination of K0.5 values for Na^+ and Cl^− (concentration of Na^+ and Cl^− necessary for half-maximal activation) and the Hill coefficient (nH; the number of Na^+ or Cl^− ions involved in the activation process). The kinetics parameters were first determined by non-linear regression methods and subsequently confirmed by linear regression methods using the commercially-available computer program SigmaPlot, version 6.0 (SPSS Inc., Chicago, Ill., US).
Therefore, it was necessary to determine whether or not the α-carboxyl esters of neutral amino acids are transportable substrates for ATB^0,+. For this purpose, we used the X. laevis oocyte expression system. Cloned rat ATB^0,+ was functionally expressed in oocytes by injection of corresponding cRNA, and the transport of substrates via the transporter was monitored by inward currents when the oocytes were exposed to putative substrates under voltage-clamp conditions.

rat ATB^0,+ [5] = target: T2, rat ATB^0,+; assay: Inhibition of ATB0,+-mediated 3H-glycine uptake in HRPE cells expressing cloned rat ATB0,+; type: cell-based; conditions: HRPE cells
SW480 = SW480 cells; cited from earlier work

## [I-].[Na+] [NaI]
Human SLC5A8 [1]; 5 mM
  Current in SLC5A8 cRNA-injected oocytes (detectable or not): did not induce any detectable current

## C[C@@H](O)C(=O)O [D-lactate]
Human SLC5A8 [1]; four oocytes
  K0.5 for SLC5A8: 742 ± 330 µM
Human SLC5A8 [2]
  Uptake, cRNA-injected oocytes: 1.090 ± 0.041
  Uptake, uninjected oocytes: 0.028 ± 0.002

## CCCC(=O)O [butyrate]
[3]; Homo sapiens, 336 h
  IC50: 37 ± 5 µM

## CC(=O)C(=O)O [pyruvate]
[3]; Homo sapiens, 336 h
  IC50: 72 ± 12 µM

## CC(=O)OC[C@H](N)C(=O)O [O-acetyl-L-serine]
Rat ATB^0,+ [4]
  Inward currents induced in ATB0,+-expressing oocytes (in words): induced marked inward currents
Rat ATB^0,+ [4]; ATB0,+-expressing oocytes
  K0.5 (substrate concentration for half-maximal current): 369 ± 25 µM
Rat ATB^0,+ [5]; 5 mM inhibitor
  Kt of ATB0,+-mediated glycine transport in the presence of inhibitor: 133 ± 36 µM
  Vmax of ATB0,+-mediated glycine transport in the presence of inhibitor: 46 ± 9 nmol/10^6 cells/30 minutes
Rat ATB^0,+ [5]; 5 mM inhibitor, read-out: Inhibition of ATB0,+-mediated glycine transport
  inhibition at 5000 µM: ~90%
Rat ATB^0,+ [5]; glycine 10 μM, read-out: IC50 for inhibition of ATB0,+-mediated glycine transport
  IC50: 423 ± 72 µM

## CCC(=O)O [propionate]
Rat ATB^0,+ [4]
  Inward currents induced in ATB0,+-expressing oocytes (in words): did not induce detectable current
[3]
  Effect on cell growth / apoptosis: induce apoptosis
  IC50: 205 ± 40 µM
Human SLC5A8 [1]; 25 μM substrate, four oocytes
  Charge-to-substrate transfer ratio: 3.1±0.1
Human SLC5A8 [1]; 5 mM substrate
  Hill coefficient (h) for Na+: 2.0±0.1
Human SLC5A8 [1]; 5 mM, -50 mV
  Relative magnitude of substrate-induced currents: maximal
Human SLC5A8 [1]; four oocytes
  K0.5 for SLC5A8: 127 ± 14 µM
Human SLC5A8 [2]
  Fold increase of uptake (cRNA-injected over uninjected): 15.9 fold
  Uptake, cRNA-injected oocytes: 0.255 ± 0.014
  Uptake, uninjected oocytes: 0.016 ± 0.001
Rat ATB^0,+ [5]; 5 mM
  Inhibition of ATB0,+-mediated glycine transport (in words): did not inhibit glycine transport

## TGF-α: growth factor used as mitogenic stimulus in SW480 cells
SW480
  Cell proliferation: 37%
  Increase of Na+-dependent arginine transport: 100%
